The source of these data is paper PMC10974284, “Discovery of Novel 4-Hydroxyquinazoline Derivatives: In Silico, In Vivo and In Vitro Studies Using Primary PARPi-Resistant Cell Lines” (Molecules, 2024).

Where two headings read alike, the source gives them in different places. Where only a bound is given, the exact number is not on record here.

The test system of data set [1] is Caspase-3, cleaved Caspase-3, Bax, Bcl-2 in HCT-15 cell lines. The data set can be described thus: Western blot of apoptosis-related proteins, HCT-15. The following applies: HCT-15, 1.25-20 μM, 48 h. The data set is classed as cell-based, human. The procedure:
(§1) Subsequently, the cells were lysed with RIPA lysis buffer and protein samples were prepared. Denatured proteins were separated by 10% SDS-PAGE electrophoresis and transferred to a PVDF membrane. The membrane was blocked with 5% blocking solution for 2 h. The membrane was incubated overnight at 4 °C with specific primary antibody. Then, the membrane was rinsed three times with TBST, secondary antibody was added, and the membrane was incubated at room temperature for 2 h. Finally, the target protein was detected by the ECL detection system. The relative expression was quantified using Image J (National Institutes of Health).

The next data set relates to NCM460. The data set can be described thus: MTT cytotoxicity assay, NCM460 normal colonic epithelial cells. The data set is classed as cell-based. The following applies: NCM460, 72 h; 3 days, human normal colonic epithelial cells. Here is the method:
(§2) After treatment with target compounds at the different concentrations, MTT was added and the cells were incubated for another 4 h. The IC50 values of the selected compounds were evaluated by the same method. The cells were treated with compounds at different concentrations. The OD values were detected using a microplate reader at 570 nm.
For orientation: Tetrazolium dyes change colour on reduction, which living cells bring about.

Data set [2] is described as follows: Acute toxicity study in mice. Type of data set: in vivo, mouse. The settings on record: single intraperitoneal injection 800 mg/kg, monitored 14 days. The procedure: The mice were administered a single intraperitoneal injection dose of 800 mg/kg and were constantly monitored for 14 days.
The subject of data set [3] is γH2AX in HCT-15 cell lines. Kind of data set: Immunofluorescence analysis of γH2AX, HCT-15. The following applies: HCT-15, 10 μM. The data set is classed as cell-based, human. The procedure: (§3) The cells were seeded in 6-well plates with 1 × 10^5 cells per well and incubated for 24 h. […] Cells were fixed with addition of 4% paraformaldehyde, and immunostaining blocking solution was added at room temperature for 20 min. […] Then, a […] staining solution (DAPI) was added for staining, the […] staining solution was aspirated, and the well washed 3 times with washing solution. Photographs were taken through a Leica SP8 Laser confocal microscope.

The test system of data set [4] is HCC1937 cell lines. The data set can be described thus: Cell apoptosis assay (Annexin V-FITC/PI flow cytometry), HCC1937. Type of data set: cell-based, human. The following applies: HCC1937, 20 μM, 48 h. The procedure:
(§4) The cells were seeded in 6-well plates with 1 × 10^5 cells per well and incubated for 24 h. […] The cells were digested, collected, and resuspended in the binding buffer. After adding 5 μL of Annexin V-FITC and 10 μL of propidium iodide (PI), the cells were incubated for 30 min away from light; this was followed by detection using flow cytometry (Beckman Coulter).

The test system of data set [5] is PAR formation in HCC1937 cell lines. The data set can be described thus: Immunofluorescence analysis of PAR, H2O2-treated HCC1937. The data set is classed as cell-based, human. The procedure: as §3
Data set [6] deals with HCC1937 cell lines. Kind of data set: Mitochondrial membrane potential assay (JC-1), HCC1937. Type of data set: cell-based, human. An excerpt:
(§5) Cell culture methods were the same as for the cell apoptosis assay.
(§6) The experimental operation was the same as ROS, only replacing the DCFH-DA probe with the JC-1 probe.

A further data set has as its system MDA-MB-231. Kind of data set: MTT cytotoxicity assay, MDA-MB-231. Type of data set: cell-based. The following applies: Homo sapiens. Here is the method:
as §2

The subject of data set [7] is HCT-15 cell lines. Kind of data set: Cell apoptosis assay (Annexin V-FITC/PI flow cytometry), HCT-15. Type of data set: cell-based, human. The settings on record: HCT-15, 20 μM, 48 h. Here is the method:
as §4
In general terms: Flow cytometry measures light scatter and fluorescence of single cells or particles in a stream.

For data set [8], the system named is HCT-15 cell lines. Kind of data set: Mitochondrial membrane potential assay (JC-1), HCT-15. The data set is classed as cell-based, human.
From the text: as §5, §6

The subject of data set [9] is Caspase-3, cleaved Caspase-3, Bax, Bcl-2 in HCC1937 cell lines. The data set can be described thus: Western blot of apoptosis-related proteins, HCC1937. The following applies: HCC1937, 1.25-20 μM, 48 h. The data set is classed as cell-based, human. The procedure: as §1
(In general: Immunoblotting shows a protein as a band on a membrane.)

The test system of data set [10] is γH2AX in HCC1937 cell lines. Kind of data set: Immunofluorescence analysis of γH2AX, HCC1937. Type of data set: cell-based, human. The settings on record: HCC1937, 10 μM. The procedure:
as §3

For a further data set, the system named is LO2. Kind of data set: MTT cytotoxicity assay, LO2 normal hepatocytes. The data set is classed as cell-based. The following applies: L02, 72 h; 3 days, human normal hepatocytes. The procedure:
as §2

For data set [11], the system named is PAR formation in HCT-15 cell lines. Kind of data set: Immunofluorescence analysis of PAR, H2O2-treated HCT-15. Type of data set: cell-based, human. The procedure: as §3
The subject of data set [12] is HCT-15 cell lines. Kind of data set: MTT cytotoxicity assay, HCT-15. Type of data set: cell-based, human. The following applies: Homo sapiens. Here is the method:
as §2

Data set [13] has as its system HCC1937 cell lines. Kind of data set: MTT cytotoxicity assay, HCC1937. Type of data set: cell-based, human. The settings on record: Homo sapiens. The procedure: as §2
Data set [14] deals with HCT-15 nude mouse xenograft model. Kind of data set: In vivo anti-tumor study. The procedure: The tumor volume and mouse body weight were recorded, and the corresponding tissues were analyzed.
All experimental procedures were performed according to the National Institutes of Health guidelines for the use of laboratory animals, and an application was made to the Institutional Animal Care and Use Committee, Shandong Second Medical University, which was approved. […] When the tumor volume reached about 80–150 mm^3, the mice were randomly divided into three groups (the control group, and different concentration administration group) and administered for 14 consecutive days, while the tumor volume was measured once every two days and the body weight of the mice was recorded. At the end stage, mice were killed by neck-breaking and tumor tissues were removed. All the photographs were taken through a Leica SP8 Laser confocal microscope.

The target in a further data set is T1, PARP1 (Homo sapiens, UniProt P09874).
T1 construct: purchased Sigma-Aldrich 17-10149
Kind of data set: PARP1 enzyme inhibition assay (commercial kit). Type of data set: biochemical.

The mark [15] stands for this setting: HCT-15, 72 h (3-Days) drug exposure, MTT, read-out: IC50 HCT-15.
The mark [16] stands for this setting: HCC1937, 72 h (3-Days) drug exposure, MTT, read-out: IC50 HCC1937.
[17] abbreviates: HCT-15, 72 h, read-out: IC50 HCT-15.
Setting [18] is: HCC1937, 72 h, read-out: IC50 HCC1937.

T1 sequence (P09874 whole entry): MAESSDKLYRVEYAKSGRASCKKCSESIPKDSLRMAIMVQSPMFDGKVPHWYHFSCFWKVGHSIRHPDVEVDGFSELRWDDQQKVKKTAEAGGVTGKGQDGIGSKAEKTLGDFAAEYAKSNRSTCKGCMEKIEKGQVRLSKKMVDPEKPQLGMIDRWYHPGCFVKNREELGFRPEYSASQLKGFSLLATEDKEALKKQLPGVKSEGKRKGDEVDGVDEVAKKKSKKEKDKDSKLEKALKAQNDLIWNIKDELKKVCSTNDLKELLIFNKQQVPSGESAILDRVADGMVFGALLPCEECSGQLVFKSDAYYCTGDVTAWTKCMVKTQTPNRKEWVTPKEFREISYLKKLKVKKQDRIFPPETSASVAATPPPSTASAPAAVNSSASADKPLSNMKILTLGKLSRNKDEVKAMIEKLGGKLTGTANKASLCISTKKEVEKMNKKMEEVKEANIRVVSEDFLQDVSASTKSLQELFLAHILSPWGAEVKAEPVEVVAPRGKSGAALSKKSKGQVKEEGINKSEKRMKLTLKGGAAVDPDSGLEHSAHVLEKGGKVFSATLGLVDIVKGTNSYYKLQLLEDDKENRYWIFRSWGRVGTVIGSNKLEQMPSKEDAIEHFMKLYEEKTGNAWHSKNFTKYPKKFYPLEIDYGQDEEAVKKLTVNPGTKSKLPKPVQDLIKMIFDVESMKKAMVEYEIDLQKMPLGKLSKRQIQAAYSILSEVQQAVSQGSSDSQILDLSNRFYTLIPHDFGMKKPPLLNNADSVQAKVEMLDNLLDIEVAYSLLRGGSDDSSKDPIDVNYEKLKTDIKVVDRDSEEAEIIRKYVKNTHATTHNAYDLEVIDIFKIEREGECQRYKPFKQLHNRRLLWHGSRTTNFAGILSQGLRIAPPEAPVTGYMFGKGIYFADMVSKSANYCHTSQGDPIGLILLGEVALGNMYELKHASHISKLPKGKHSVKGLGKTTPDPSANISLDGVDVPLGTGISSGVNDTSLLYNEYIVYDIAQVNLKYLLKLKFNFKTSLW

Usually IC50 stands for the concentration at which inhibition is half-maximal. As to `Cc1ccc(Cl)cc1NC(=O)N1C2CC1CN(Cc1nc3ccccc3c(=O)[nH]1)C2` [B1, N-(5-chloro-2-methylphenyl)-3-((4-oxo-3,4-dihydroquinazolin-2-yl)methyl)-3,6-diazabicyclo[3.1.1]heptane-6-carboxamide], the Bax expression entry in [1] and in [9] was “considerably increased Bax expression” each time. For the same compound, the Bcl-2 expression result in data set [1] and in [9] was “decreased Bcl-2 expression” in each case. Further, the Caspase-3 activation result in data set [1] and in [9] was “activated Caspase-3” in each case. Further, the half-maximal inhibitory concentration (IC50) in the data set on NCM460 was over 100 µM; with MDA-MB-231 (MDA-MB-231, 72 h, 3 days, read-out: IC50 MDA-MB-231 3-Days) it was 11.3 ± 1.93 µM; in the data set on MDA-MB-231 (MDA-MB-231, 7 days, read-out: IC50 MDA-MB-231 7-Days) it was 1.33 ± 0.51 µM; in the data set on LO2, over 100 µM; in the data set on HCT-15 cell lines [12] (setting [15]), 2.89 ± 0.78 µM; in the data set on HCT-15 cell lines [12] (HCT-15, 7 days drug treatment, read-out: IC50 HCT-15 7-Days) it was 0.13 ± 0.03 µM. For the same compound, the concentration for half-maximal inhibition (IC50) in the data set on HCC1937 cell lines [13] (setting [16]) amounted to 3.26 ± 0.38 µM; with HCC1937 cell lines [13] (HCC1937, 7 days drug treatment, read-out: IC50 HCC1937 7-Days), 0.17 ± 0.04 µM. Besides, the “body weight, acute toxicity” value in [2] is given as “no significant reduction in body weight”. In addition, in data set [2], the “major organs (H&E), acute toxicity” value is reported as “no significant changes in heart, liver, spleen, lung, or kidney”. Besides, the “expression of γH2AX” value in data set [3] and in data set [10] was “significantly increased” in each case. Moreover, the figures for the apoptosis rate in the data set with HCC1937 cell lines [4] and with HCT-15 cell lines [7] were 53.14% and 73.58%, respectively. The “PAR aggregation (green fluorescence)” value is listed as “green fluorescence obviously weakened” in [5] (H2O2-treated HCC1937, 1.25 μM); “green fluorescence almost disappeared” in [5] (H2O2-treated HCC1937, 5 μM); “green fluorescence obviously weakened” in data set [11] (H2O2-treated HCT-15, 1.25 μM); “green fluorescence almost disappeared” in data set [11] (H2O2-treated HCT-15, 5 μM). The “mitochondrial membrane potential (JC-1 fluorescence)” value is listed as “green fluorescence began to change significantly” in the data set on HCC1937 cell lines [6] (HCC1937, 5 μM); “the intensity of red fluorescence was hardly visible” in the data set with HCC1937 cell lines [6] (HCC1937, 20 μM); “green fluorescence began to change significantly” with HCT-15 cell lines [8] (HCT-15, 5 μM); “the intensity of red fluorescence was hardly visible” with HCT-15 cell lines [8] (HCT-15, 20 μM). Moreover, the “tumor cell morphology (H&E)” value in [14] (10 mg/kg intraperitoneally once daily for 14 days) was “irregular morphological alterations and severe vacuolization”. In addition, the “xenograft tumor growth (tumor volume and weight)” value in data set [14] (25 mg/kg intraperitoneally once daily for 14 days) and in data set [14] (50 mg/kg intraperitoneally once daily for 14 days) was “significantly inhibited xenograft tumor growth” each time.

Usually melting point stands for the temperature, or range, at which the solid turns liquid. Regarding `Cc1ccc(Cl)cc1NC(=O)N1C2CC1CN(Cc1nc3ccc(F)cc3c(=O)[nH]1)C2` [C4, N-(5-chloro-2-methylphenyl)-3-((6-fluoro-4-oxo-3,4-dihydroquinazolin-2-yl)methyl)-3,6-diazabicyclo[3.1.1]heptane-6-carboxamide], the melting point is 192.1 to 193.5 °C. Moreover, the IC50 in the data set with HCT-15 cell lines [12] (setting [17]) amounted to 9.84 ± 0.63 µM. Besides, the half-inhibitory concentration (IC50) in the data set with HCC1937 cell lines [13] (setting [18]) was found to be 8.49 ± 0.71 µM.

`Cc1ccc(Cl)cc1NC(=O)N1C2CC1CN(Cc1nc3cc(F)c(F)cc3c(=O)[nH]1)C2` [C5, N-(5-chloro-2-methylphenyl)-3-((6,7-difluoro-4-oxo-3,4-dihydroquinazolin-2-yl)methyl)-3,6-diazabicyclo[3.1.1]heptane-6-carboxamide] had a melting point of 194.4 to 195.8 °C. Besides, the IC50 in the data set with HCT-15 cell lines [12] (setting [17]) turned out to be 29.6 ± 2.16 µM. The 50% inhibitory concentration (IC50) in the data set with HCC1937 cell lines [13] (setting [18]) was found to be 55 ± 4.28 µM.

One may read the inhibition as the share of the control response that was lost under treatment. Regarding `O=C(Nc1ccc(F)cc1F)N1CCN(Cc2nc3ccccc3c(=O)[nH]2)CC1` [IN17], the IC50 against PARP1 turned out to be 0.4713 ± 0.00318 µM; at PARP1 (as printed in the text) it was 0.47 ± 0.0032 µM; in the data set with HCT-15 cell lines [12] (setting [15]), 33.5 ± 1.79 µM; with HCC1937 cell lines [13] (setting [16]), 34.3 ± 2.68 µM. Further, the inhibition at 0.5 µM on PARP1 (0.5 μM, read-out: Inhibition rate (%) PARP1) came to 53.1%. Besides, the inhibition at 50 µM in the data set with HCT-15 cell lines [12] (HCT-15, 50 μM, 72 h, MTT, read-out: Inhibition rate (%) HCT-15) came out at 63.3%; in the data set with HCC1937 cell lines [13] (HCC1937, 50 μM, 72 h, MTT, read-out: Inhibition rate (%) HCC1937), 60.6%.
